Source: patent US20250382298A1, “NITROGEN-CONTAINING COMPOUND AND USE THEREOF” (SUZHOU GENHOUSE BIO CO., LTD., priority 2022, published 2025)

Legend:
HCT-116 cells [1] = assay: Mitotic index analysis, pH3 expression in HCT-116 cells; type: cell-based; conditions: 24 h treatment
Outline: (§1)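 HCT-116 or HT-29 cells treated 24 h with 9-point 3-fold dilutions from 10 μM, then fixed and immunostained for phospho-histone H3 with DRAQ5 counterstain. Near-infrared fluorescence read at 700/800 nm; pH3 expressed as % of DMSO control and EC50 fitted.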

HT-29 cells [2] = assay: Detection of cell proliferation activity by CCK8 method (HT-29); type: cell-based, human; conditions: CCK8, 96 h
Outline: (§2)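 Cells seeded at 1500/well (BT-549, 1640 medium) or 2000/well (HT-29, HCT-116, McCoy's 5A), treated next day with 9-point 1:5 dilutions from 10 μM final, triplicate, for 96 h. CCK8 read at 450 nm after 2 h at 37 °C; inhibition versus DMSO, IC50 by non-linear regression.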

BT-549 cells = assay: Detection of cell proliferation activity by CCK8 method (BT-549); type: cell-based; conditions: CCK8, 96 h
Outline: as §2

HT-29 cells [3] = assay: Mitotic index analysis, pH3 expression in HT-29 cells; type: cell-based, human; conditions: 24 h treatment
Outline: as §1

HCT-116 cells [4] = assay: Detection of cell proliferation activity by CCK8 method (HCT-116); type: cell-based; conditions: CCK8, 96 h
Outline: as §2

| SMILES | EC50 (HCT-116 cells [1]; Homo sapiens) [nM] | IC50 (HT-29 cells [2]; Homo sapiens) [nM] | IC50 (BT-549 cells; Homo sapiens) [nM] | EC50 (HT-29 cells [3]; Homo sapiens) [nM] | IC50 (HCT-116 cells [4]; Homo sapiens) [nM] | EC50 (HCT-116 cells [1]) [nM] | IC50 (HT-29 cells [2]) [nM] | IC50 (BT-549 cells) [nM] | EC50 (HT-29 cells [3]) [nM] | IC50 (HCT-116 cells [4]) [nM] |
| --- | --- | --- | --- | --- | --- | --- | --- | --- | --- | --- |
| Cc1cc(NC(=O)c2ccc(NS(=O)(=O)CCO)cc2N2CC3CCC(C3)C2)nc(N2CCC(F)(F)CC2)n1 [Compound 3] | > 10000 | 115 | 145 | 495 | > 10000 | – | – | – | – | – |
| O=C(Nc1cc2ccccc2c(N2CCC(F)(F)CC2)n1)c1ccc(NS(=O)(=O)CCO)cc1N1CCC2(CC1)CC2 [Compound 6] | > 10000 | 144 | 146 | 175 | > 10000 | – | – | – | – | – |
| O=C(Nc1cn2ccnc2c(N2CCC(F)(F)CC2)n1)c1ccc(NS(=O)(=O)CCO)cc1N1CCC2(CC1)CC2 [Compound 8] | > 10000 | 19 | 7.2 | 6.4 | > 10000 | – | – | – | – | – |
| O=C(Nc1cc2cccnc2c(N2CCC(F)(F)CC2)n1)c1ccc(NS(=O)(=O)CCO)cc1N1CCC2(CC1)CC2 [Compound 21] | > 10000 | 5.1 | 8.2 | 6 | > 10000 | – | – | – | – | – |
| O=C(Nc1cn2cnnc2c(N2CCC(F)(F)CC2)n1)c1ccc(NS(=O)(=O)CCO)cc1N1CCC2(CC1)CC2 [Compound 24] | – | – | – | – | – | > 10000 | 142 | 52.8 | 65.6 | > 10000 |
| O=C(Nc1cn2c(F)cnc2c(N2CCC(F)(F)CC2)n1)c1ccc(NS(=O)(=O)CCO)cc1N1CCC2(CC1)CC2 [Compound 34] | > 10000 | 28.8 | 33.3 | 14.5 | > 10000 | – | – | – | – | – |

Now from value to molecule, other results behind:

| EC50 (HCT-116 cells [1]; Homo sapiens) [nM] | IC50 (HT-29 cells [2]; Homo sapiens) [nM] | IC50 (BT-549 cells; Homo sapiens) [nM] | EC50 (HT-29 cells [3]; Homo sapiens) [nM] | IC50 (HCT-116 cells [4]; Homo sapiens) [nM] | SMILES | EC50 (HCT-116 cells [1]) [nM] | IC50 (HT-29 cells [2]) [nM] | IC50 (BT-549 cells) [nM] | EC50 (HT-29 cells [3]) [nM] | IC50 (HCT-116 cells [4]) [nM] |
| --- | --- | --- | --- | --- | --- | --- | --- | --- | --- | --- |
| > 10000 | 61 | 52 | 183 | > 10000 | CS(=O)(=O)Nc1ccc(C(=O)Nc2cn3ccnc3c(N3CCC(F)(F)CC3)n2)c(N2CCC3(CC2)CC3)c1 [Compound 10] | – | – | – | – | – |
| > 10000 | 30 | 25 | 22 | > 10000 | O=C(Nc1cc2c(c(N3CCC(F)(F)CC3)n1)COC2)c1ccc(NS(=O)(=O)CCO)cc1N1CCC2(CC1)CC2 [Compound 14] | – | – | – | – | – |
| > 10000 | 107 | 86 | 82 | > 10000 | O=C(Nc1cc2ccsc2c(N2CCC(F)(F)CC2)n1)c1ccc(NS(=O)(=O)CCO)cc1N1CCC2(CC1)CC2 [Compound 15] | – | – | – | – | – |
| > 10000 | 27 | 33 | 57 | > 10000 | O=C(Nc1cn2ccnc2c(N2CCC(F)(F)CC2)n1)c1ccc(NS(=O)(=O)CCO)cc1N1CC2CCC(C2)C1 [Compound 17] | – | – | – | – | – |
| > 10000 | 44 | 69.6 | 34 | > 10000 | CS(=O)(=O)Nc1ccc(C(=O)Nc2cn3ccnc3c(N3CCC(F)(F)CC3)n2)c(N2CC3CCC(C3)C2)c1 [Compound 19] | – | – | – | – | – |
| > 10000 | 20.6 | 22.1 | 8.9 | > 10000 | O=C(Nc1cc2cc[nH]c2c(N2CCC(F)(F)CC2)n1)c1ccc(NS(=O)(=O)CCO)cc1N1CCC2(CC1)CC2 [Compound 22] | – | – | – | – | – |
| > 10000 | 22.5 | 22.6 | 9.8 | > 10000 | O=C(Nc1cn2ncnc2c(N2CCC(F)(F)CC2)n1)c1ccc(NS(=O)(=O)CCO)cc1N1CCC2(CC1)CC2 [Compound 23] | – | – | – | – | – |
| > 10000 | 10.5 | 18.9 | 6.4 | > 10000 | CS(=O)(=O)Nc1ccc(C(=O)Nc2cc3cc[nH]c3c(N3CCC(F)(F)CC3)n2)c(N2CCC3(CC2)CC3)c1 [Compound 47] | – | – | – | – | – |
